Columns and labels:
[1] = test system: normal, T1DM and T2DM mice; assay: Plasma insulin levels before and after treatment; format: in vivo, ICR mice; details: for Plasma insulin Before-treatment: metformin 300 mgkg^−1 group; for Plasma insulin After-treatment: metformin 300 mgkg^−1 i.p.
Protocol: The 4-week-old male ICR mice were purchased from the Animal Center of the College of Medicine, National Taiwan University (Taipei, Taiwan) with delicate humane care. This animal study was conducted by following the University ethical guidelines and the ‘Guide for the Care and Use of Laboratory Animals’ published by the US National Institutes of Health (NIH publication no. 85-23, revised 1996). The animal experiments were approved by the Institutional Animal Care and Use Committee (IACUC) of the National Taiwan University (IACUC No. 20110073). Animals were housed in a room at the constant temperature, 22±1° C., with 12 hours light and dark cycles.
(§1) After three days of acclimatization, the mice had free access to a standard rodent chow (normal mice), a standard rodent chow after single […] streptozotocin (STZ) intraperitoneal injection (T1DM mice), and a fat-rich chow diet and fructose-sweetened water (T2DM mice) for 4 weeks. The induction of Type 1 DM was assessed and confirmed when the mice had plasma glucose levels ≧350 mgdL^−1, accompanied with polyuria, hyperphagia and decreased body weight. The induction Type 2 DM in the mice was assessed by measuring fasting plasma glucose levels and confirmed when plasma glucose level was ≧150 mgdL^−1 after the 4-week induction. The animals were assigned randomly into three groups, with seven animals in each group. In group I, the mice were treated with vehicle, 2% DMSO in normal saline, as the negative control. In group II, the mice were intraperitoneally treated with borapetoside A (0.1-10 mgkg^−1). In group Ill, the positive control, the mice received intraperitoneally metformin (300 mgkg^−1; Sigma Chemical Co., St. Louis, Mo., U.S.A.) or insulin (0.5 IUkg^−1; Insulin Actrapid® HM; Novo Nordisk, Denmark). In the acute study, mice under anesthesia received a single intraperitoneal administration of borapetoside A, negative control, or positive control. In the subacute study, mice received intraperitoneal administrations of borapetoside A, vehicle, or insulin twice a day for seven days.
(§2) Blood samples were collected from the orbital vascular plexus of the mice under anesthesia. Blood samples were then centrifuged at 13000 rpm for 5 min, and the plasma samples were collected and kept on ice prior to the assay. The plasma glucose concentration was measured by Glucose Kit Reagent (Biosystems S. A., Barcelona, Spain) following the manufacturer's instructions, and the insulin levels were estimated using mouse insulin ELISA kit (Mercodia AB, Uppsala, Sweden).

[2] = test system: normal mice and mice with type 2 DM; assay: Intraperitoneal glucose tolerance test (IPGTT); format: in vivo, ICR mice; details: normal and type 2 DM mice; borapetoside A 0.1, 1 and 10 mgkg^−1; metformin
Protocol: as §1, §2
The mice were maintained under anesthesia throughout the procedure. Glucose (2.0 gkg^−1) was administered intraperitoneally. Blood samples were collected from the orbital vascular plexus at 0, 30, 60, 120 min. The concentrations of the plasma glucose were measured, and the values of AUC were calculated accordantly.

CN(C)C(=N)N=C(N)N [Metformin, metformin, reference compound]
Plasma insulin Before-treatment ([1]; Normal mice): 66.6 ± 1.3 pmol/L | Plasma insulin After-treatment ([1]; Normal mice): 72 ± 3.1 pmol/L | Plasma insulin Before-treatment ([1]; T1DM mice): 22.4 ± 0.4 pmol/L | Plasma insulin After-treatment ([1]; T1DM mice): 22.7 ± 0.3 pmol/L | Plasma insulin Before-treatment ([1]; T2DM mice): 148.1 ± 15.2 pmol/L | Plasma insulin After-treatment ([1]; T2DM mice): 182.0 ± 27.7 pmol/L | increase of plasma glucose level at 30 min in IPGTT, compared to the vehicle group [2]: significantly suppressed

Reference: patent publication US20150265682A1, “THERAPEUTIC METHODS AND COMPOSITIONS FOR TREATING DIABETES” (Orient Europharma Co., Ltd., priority 2014, published 2015)
